Results as given in patent US9296711B2, “Substituted isoxazole amide compounds as inhibitors of stearoyl-CoA desaturase 1 (SCD1)” (Hoffman-La Roche Inc., priority 2012, dated 2016).

Biological target: T1, SCD1 (Mus musculus, UniProt P13516)
T1 construct: Mouse liver microsomes, prepared from mice fed a high-carbohydrate diet, were a source of the SCD; from tissue; host or cells: mouse liver microsomes (mice fed a high-carbohydrate diet)
T1 sequence (P13516 1-355): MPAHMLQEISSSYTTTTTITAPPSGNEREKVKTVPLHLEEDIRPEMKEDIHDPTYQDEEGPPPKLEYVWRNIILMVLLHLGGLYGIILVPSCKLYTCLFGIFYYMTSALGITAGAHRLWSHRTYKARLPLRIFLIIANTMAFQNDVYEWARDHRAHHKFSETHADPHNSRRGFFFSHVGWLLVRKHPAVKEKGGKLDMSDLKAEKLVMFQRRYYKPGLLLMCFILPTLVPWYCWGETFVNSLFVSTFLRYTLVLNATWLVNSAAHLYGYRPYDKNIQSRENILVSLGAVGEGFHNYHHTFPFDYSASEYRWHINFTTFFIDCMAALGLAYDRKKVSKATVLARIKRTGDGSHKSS
Assay: SCD assay: release of tritiated water from desaturation of 9,10-3H-stearoyl CoA by mouse liver microsomes
Assay type: biochemical
Settings: mouse liver microsomes as SCD source; 300 nM (9,10)3H-stearoyl CoA; 25 minutes at room temperature; read-out: IC50 (in vitro inhibition of SCD1)
Text: Stearoyl CoA desaturase activity was monitored by a modification of the acyl carrier protein assay described by B. R. Talamo and K. Bloch in Anal. Biochem. 1968, 29, 300-304. The SCD assay monitors the release of tritiated water from the desaturation of 9,10-^3H-stearoyl CoA.
Mouse liver microsomes, prepared from mice fed a high-carbohydrate diet, were a source of the SCD and cyt b5 and cyt b5 reductase, necessary accessory proteins for the coupled reaction. Reaction mixtures for compound titrations contained 50 mM Tris HCl pH 7.5, 100 mM NaCl, 0.165 mg/ml BSA, 2.4% DMSO, 1 mM NADH, 0.03% T-20, and 300 nM (9,10)^3H-stearoyl CoA (Perkin-Elmer). Reactions were initiated upon the addition of 4 ug/ml SCD microsomes. Incubations were terminated after 25 minutes at room temperature with cold 6% TCA. After standing 10 minutes at 4° C., samples were centrifuged 15 minutes at 4000 rpm to pellet precipitated protein. Supernatants were added to microtiter plates containing suspensions of activated charcoal (Darco G-60, Fisher Scientific) and mixed by inversion. Plates were then centrifuged to separate ^3H—H2O product from charcoal-bound reactants. Supernatants were quantitated in a Perkin Elmer Topcount 384 after solubilization in ScintiSafe Plus 50% (Fisher Scientific).
Inhibition (%) of SCD activity by compounds was calculated according to the following formula: % Inhibition=100*[1−(CPMsample−CPMblank)/(CPMtotal−CPMblank)]

Compound	IC50 [nM]
NC(=O)c1cc(-c2ccc(OCc3cccc(F)c3)cc2)no1 [Example 16, 3-[4-(3-Fluoro-benzyloxy)-phenyl]-isoxazole-5-carboxylic acid amide]	450
Cc1cc(F)ccc1OCc1ccc(-c2cc(C(N)=O)on2)cc1 [Example 42, 3-[4-(4-Fluoro-2-methyl-phenoxymethyl)-phenyl]-isoxazole-5-carboxylic acid amide]	280
Cc1ccc(F)cc1OCc1ccc(-c2cc(C(N)=O)on2)cc1 [Example 43, 3-[4-(5-Fluoro-2-methyl-phenoxymethyl)-phenyl]-isoxazole-5-carboxylic acid amide]	55
Cc1ncccc1OCc1ccc(-c2cc(C(N)=O)on2)cc1 [Example 44, 3-[4-(2-Methyl-pyridin-3-yloxymethyl)-phenyl]-isoxazole-5-carboxylic acid amide]	1100
NC(=O)c1cc(-c2ccc(CN3CCc4ccccc43)cc2)no1 [Example 45, 3-[4-(2,3-Dihydro-indol-1-ylmethyl)-phenyl]-isoxazole-5-carboxylic acid amide]	31
NC(=O)c1cc(-c2ccc(CN3Cc4ccccc4C3)cc2)no1 [Example 46, 3-[4-(1,3-Dihydro-isoindol-2-ylmethyl)-phenyl]-isoxazole-5-carboxylic acid amide]	2800
NC(=O)c1cc(-c2ccc(CN3CCCc4ccccc43)cc2)no1 [Example 52, 3-[4-(3,4-Dihydro-2H-quinolin-1-ylmethyl)-phenyl]-isoxazole-5-carboxylic acid amide]	24
CC1Cc2ccccc2N1Cc1ccc(-c2cc(C(N)=O)on2)cc1 (stereo not shown) [Example 53, 3-[4-(2-Methyl-2,3-dihydro-indol-1-ylmethyl)-phenyl]-isoxazole-5-carboxylic acid amide]	100
Cc1cccc2c1ccn2Cc1ccc(-c2cc(C(N)=O)on2)cc1 [Example 54, 3-[4-(4-Methyl-indol-1-ylmethyl)-phenyl]-isoxazole-5-carboxylic acid amide]	220
NC(=O)c1cc(-c2ccc(OCc3ccccc3C(F)(F)F)c(Cl)c2)no1 [Example 55, 3-[3-Chloro-4-(2-trifluoromethyl-benzyloxy)-phenyl]-isoxazole-5-carboxylic acid amide]	2700

Next, values leading:

IC50 [nM]	Compound
17	NC(=O)c1cc(-c2ccc(Cn3ccc4ccccc43)cc2)no1 [Example 47, 3-(4-Indol-1-ylmethyl-phenyl)-isoxazole-5-carboxylic acid amide]
230	NC(=O)c1cc(-c2ccc(Cn3nnc4ccccc43)cc2)no1 [Example 48, 3-(4-Benzotriazol-1-ylmethyl-phenyl)-isoxazole-5-carboxylic acid amide]
72	NC(=O)c1cc(-c2ccc(Cn3cnc4ccccc43)cc2)no1 [Example 49, 3-(4-Benzoimidazol-1-ylmethyl-phenyl)-isoxazole-5-carboxylic acid amide]
74	NC(=O)c1cc(-c2ccc(Cn3ncc4ccccc43)cc2)no1 [Example 50, 3-(4-Indazol-1-ylmethyl-phenyl)-isoxazole-5-carboxylic acid amide]
47	NC(=O)c1cc(-c2ccc(Cn3cc4ccccc4n3)cc2)no1 [Example 51, 3-(4-Indazol-2-ylmethyl-phenyl)-isoxazole-5-carboxylic acid amide]

System: not given
Assay: not given
Settings: not given

Compound	melting point [°C]
NC(=O)c1cc(-c2ccc(OCc3cccc(F)c3)cc2)no1 [Example 16, 3-[4-(3-Fluoro-benzyloxy)-phenyl]-isoxazole-5-carboxylic acid amide]	221 to 222
